Data reported in patent US5708018A, “2-aminoindans as selective dopamine D3 ligands” (Pharmacia & Upjohn Company, priority 1996, dated 1998).
Like-named read-outs stand apart in the source and are kept apart here.

Experiments:
D2 = molecular target: T1, D2 (Rattus norvegicus, UniProt P61169); assay: Competition binding, cloned mammalian D2 receptors expressed in CHO-K1 cells, [3H]-5-(dipropylamino)-5,6-dihydro-4H-imidazo(4,5,1-ij)quinolin-2(1H)-one (R-enantiomer); conditions: radioligand 2 nM, IC50 from one-site fit, Ki by Chen-Prushoff equation
T1 construct: expressed in transfected cells; host or cells: CHO-K1
Protocol: (§1) Competition binding experiments employed eleven dilutions of test compounds competing with [^3 H]-5-(dipropylamino)-5,6-dihydro-4H-imidazo(4,5,1-ij)quinolin-2(1H)-one (R-enantiomer) (62 Ci/mmol, 2 nM) and [^3 H]-spiperone (107 Ci/mmol, 0.5 nM) for D2 and D3 binding sites, respectively. (Lahti, R. A., Eur. J. Pharmacol., 202, 289 (1991)) In each experiment, cloned mammalian receptors expressed in CHO-K1 cells were used. (Chio, C. L., Nature, 343, 266 (1990); and Huff, R. M., Mol. Pharmacol. (1993), in press). IC50 values were estimated by fitting the data to a one-site model by non-linear least squares minimization. Ki values were calculated with the Chen-Prushoff equation.

D3 = molecular target: T2, D3 (Rattus norvegicus, UniProt P19020); assay: Competition binding, cloned mammalian D3 receptors expressed in CHO-K1 cells, [3H]-spiperone
T2 construct: expressed in transfected cells; host or cells: CHO-K1
Protocol: as §1

[1] = cloned mammalian receptors in CHO-K1 cells, [3H]-spiperone 0.5 nM, IC50 from one-site fit, Ki by Chen-Prushoff equation, read-out: D3 (ki)

T1 sequence (P61169 whole entry): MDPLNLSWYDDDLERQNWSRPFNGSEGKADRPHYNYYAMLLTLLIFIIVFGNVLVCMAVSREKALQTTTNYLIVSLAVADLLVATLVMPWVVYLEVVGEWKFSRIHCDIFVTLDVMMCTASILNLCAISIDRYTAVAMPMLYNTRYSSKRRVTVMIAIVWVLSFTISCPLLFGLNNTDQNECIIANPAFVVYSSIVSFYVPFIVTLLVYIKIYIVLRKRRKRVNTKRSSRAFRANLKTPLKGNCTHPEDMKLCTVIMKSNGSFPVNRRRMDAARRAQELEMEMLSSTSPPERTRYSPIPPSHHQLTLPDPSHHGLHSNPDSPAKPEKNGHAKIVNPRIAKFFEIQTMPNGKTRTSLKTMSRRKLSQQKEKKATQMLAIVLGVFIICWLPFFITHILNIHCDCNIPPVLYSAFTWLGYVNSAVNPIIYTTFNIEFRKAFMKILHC
T2 sequence (P19020 whole entry): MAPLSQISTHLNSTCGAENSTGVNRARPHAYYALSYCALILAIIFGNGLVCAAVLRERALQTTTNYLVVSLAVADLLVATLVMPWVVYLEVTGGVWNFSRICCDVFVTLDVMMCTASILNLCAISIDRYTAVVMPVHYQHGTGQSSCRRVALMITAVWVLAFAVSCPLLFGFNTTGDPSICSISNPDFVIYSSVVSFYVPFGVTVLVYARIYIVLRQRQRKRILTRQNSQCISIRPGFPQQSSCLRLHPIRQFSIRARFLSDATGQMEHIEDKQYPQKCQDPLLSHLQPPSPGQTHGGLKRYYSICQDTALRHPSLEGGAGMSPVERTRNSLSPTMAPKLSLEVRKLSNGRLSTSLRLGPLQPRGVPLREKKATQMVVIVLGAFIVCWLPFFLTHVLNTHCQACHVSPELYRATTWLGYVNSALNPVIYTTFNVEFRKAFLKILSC

| Ki (D3; [1]) [nM] | SMILES | Ki (D2) [nM] | Ki (D3) [nM] |
| --- | --- | --- | --- |
|  | CCCN(CCC)C1Cc2ccc(OS(=O)(=O)C(F)(F)F)cc2C1 (centres unmarked) [Example 2] | 350 | 31 |
| 3.7 | CCCN(CCC)C1Cc2ccc(OS(=O)(=O)c3ccc(C)cc3)cc2C1 (centres unmarked) [Example 17, Toluene-4-sulfonic acid 2-dipropylamino-indan-5-yl ester] | 108 |  |
| 45 | CCCN(CCC)C1Cc2cc(OS(=O)(=O)c3ccc(C)cc3)c(OS(=O)(=O)c3ccc(C)cc3)cc2C1 [Example 32, 5,6 di-toluenesulfonyloxy-2-(di-n-propylamino)indan] | 291 |  |
|  | CCCN(CCC)C1Cc2cc(O)c(C(=O)OC)cc2C1 (centres unmarked) [Example 10, 5-(carbomethoxy)-6-hydroxy-2-(di-N-propylamino)indan] | 121 | 6.5 |
